The values that follow are results of earlier work, collected in patent publication US5321022A, “Compositions for percutaneous administration” (Kanebo, Ltd., priority 1989, dated 1994).

For this series the following is noted: cf: U.S. Pat. No. 4430343.

With `CCOCCn1c(N2CCCN(C)CC2)nc2ccccc21` [emedastine, 1-(2-Ethoxyethyl)-2-(hexahydro-4-methyl-1H-1,4-diazepin-1-yl)-1H-benzimidazole], the “antihistaminic activity (in words)” value is recorded as “strong antihistaminic activity”.
